Results taken from US20050148553A1, “Use of tigecycline, alone, or in combination with rifampin to treat osteomyelitis and/or septic arthritis” (priority 2003, published 2005).
≈ marks a conversion by molar mass, not a printed value. Where “and” joins values, the source holds several entries; their conditions need not be identical. Identical values can stand only once. Like-named read-outs stand apart in the source and are kept apart here.

Key:
Acinetobacter baumannii = test: Compassionate use study, osteomyelitis patient; assay type: in vivo, human; conditions: one human patient
Protocol: The patient was treated with meropenem and tobramycin. […] The patient was then treated with tigecycline for two months with either 50 mg every 12 hours or 50 mg every 24 hours.

[1] = system: methicillin-resistant S. aureus; test: microbe, parasite or virus in culture; assay type: cell-based, Staphylococcus aureus; conditions: for MBC / MIC: Staphylococcus aureus; for MBC: read-out: minimum bactericidal concentration (MBC); for MIC: read-out: minimum inhibitory concentration (MIC)
Protocol: The minimum inhibitory concentrations (MIC) of tigecycline, vancomycin and rifampin were determined using an antibiotic two-fold tube-dilution method. The minimum bactericidal concentrations were also determined. The limits of sensitivity of this method were 25 μg/ml to 0.20 μg/ml.

[2] = Antibiotic levels in rabbit serum and bone by diffusion bioassay; assay type: in vivo, New Zealand white rabbits; conditions: infected rabbits; tigecycline 14 mg/kg, vancomycin 30 mg/kg twice daily
Protocol: Normal NZW rabbit serum (Fisher Scientific) and normal, uninfected rabbit tibia bone were used to generate standard curves for tigecycline (Wyeth-Ayerst Research, Pearl River, N.Y.), vancomycin (Abbott Laboratories, Chicago, Ill.), and rifampin (Merrell Pharmaceuticals Inc. Kansas, Mo.). Bioassays were performed with each drug to generate the standard curves for antibiotic concentration in serum and/or tibial bone.
The organism used for the bioassay was Bacillus cereus ATCC11778. Serum standards were prepared using two-fold serial dilutions with either antibiotic to yield concentrations of 25 μg/ml to 0.20 μg/ml drug in Normal NZW rabbit serum. Bone eluate standards were prepared for tigecycline by thoroughly cleaning noninfected rabbit tibias with 70% ethanol in a sterilized fume hood. Each tibia was broken into small chips of approximately 0.5 cm^2 using a grinder. The chips were placed into a sterile, 50 ml conical centrifuge tube and weighed. One milliliter of sterile, 0.9% normal saline was added for each gram of bone chips. The solution was thoroughly vortexed for two minutes. The resulting bone eluate was allowed to shake at 180 rpm in a cold room at 4° C., for 12 hours. The samples were centrifuged at 4000 rpm for 3 minutes prior to assay, to pellet the chips.
The diameter of the zone of growth inhibition around each well was measured, in millimeters. A standard curve was generated for tigecycline concentration in both serum and bone eluate and for vancomycin in serum by plotting the known antibiotic concentration against its resulting zone of inhibition measurement. […]
Serum samples were stored at −70° C. until the bioassay was performed. […] The diameter of the zone of growth inhibition around each well was measured and concentrations of tigecycline were extrapolated from the standard curve.
Peak and trough levels of antibiotic were determined for Groups 2 and 4 at 1 hour (peak) and 12 hour (trough) after the initial antibiotic administration. Antibiotic concentrations were determined by means of a bioassay. […]

[3] = Adverse events and weight variance in infected treated rabbits; conditions: infected rabbits after antibiotic treatment
Excerpt: All rabbits were monitored weekly for weight variance. […] The key for FIGS. 4A and B is as follows: Control=control group, no treatment; Vancomycin=subcutaneous vancomycin treated group; Vanco+Rifampin=subcutaneous vancomycin with oral rifampin treated group; Gar-936=subcutaneous Gar-936 treated group; Gar-936+Rifampin=subcutaneous Gar-936 with oral Rifampin treated group.

[4] = system: methicillin-resistant S. aureus
Protocol: Preparation of the Infective Media: S. aureus was incubated overnight in Mueller Hinton Broth (Difco Laboratories, Detroit, Mich.) medium spiked with 40 μg/ml oxacillin, at 37° C. The bacterial concentration of the culture was adjusted to 10^7 CFU's/ml.
Rabbit Infection Procedure: New Zealand white rabbits (Ray Nicholl's Rabbitry, Lumberton, Tex.), eight to 12 weeks old and weighing 2.0 to 3.5 kg, were utilized for the study. After anesthesia was given, an 18-gauge needle was inserted percutaneously through the lateral aspect of the left tibial metaphysis into the intramedullary cavity. Next, 0.15 ml of 5% sodium morrhuate (American Regent Laboratories, Inc., Shirley, N.Y.), 0.1 ml of S. aureus (10^7 CFU/ml), and 0.2 ml of sterile, normal saline, 0.9%, were injected sequentially.
Group 1 (control group): infected but left untreated for the duration of the study. Group 2: rabbits were treated for 4 weeks with subcutaneous vancomycin at 30 mg/kg twice daily. Group 3: rabbits were treated for 4 weeks with subcutaneous vancomycin at 30 mg/kg twice daily plus oral rifampin at 40 mg/kg twice daily in 0.5% methylcellulose. Group 4: rabbits were treated for 4 weeks with subcutaneous tigecycline at 14 mg/kg twice daily. Group 5: rabbits were treated for 4 weeks with subcutaneous tigecycline at the same dose as in the rabbits in Group 4, plus oral rifampin at 40 mg/kg twice daily in 0.5% methylcellulose. […] Group 6: rabbits were treated for 1 week with subcutaneous tigecycline at the same dose as in Group 4, but were sacrificed 3 hours after administration of the last dose. At that time, blood and infected bone samples were collected and tigecycline concentration was determined. Groups 1 to 5 were left untreated for 2 weeks after treatment phase of the experiment and sacrificed at 8 weeks after infection.
Radiographs of bilateral tibias were taken at initiation of therapy (2 weeks after infection), at the end of antibiotic therapy (6 weeks after infection), and at sacrifice (8 weeks after infection). Radiographs were scored according to a visual scale (Table 1) by three investigators, each blinded to the treatment group, and the grades were averaged.
After sacrifice, gross cultures were performed for right and left tibias. Quantitative counts of S. aureus, in CFUs per gram, of left tibial bone and marrow were determined for all study groups.
Culture Preparation: The bone marrow and the intramedullary canal of bilateral tibias were swabbed with sterile cotton tip applicators for gross cultures analysis of left tibias and quality assurance checks of right tibias. The inoculated applicator was streaked onto blood plates and then placed into 5 ml of sterile TSB. The plates and tubes were then incubated at 37° C. for 24 hours and growth and/or turbidity was recorded.
The bone marrow was placed into a sterile, 50 ml centrifuge tube and weighed. The bone fragments were broken into 0.5 cm^2 chips, placed into a sterile, 50 ml centrifuge tube, and the final product weighed. Normal sterile saline, 0.9%, was added in a 3 to 1 ratio (3 ml saline/gram of bone or marrow) and the suspensions were vortexed for 2 minutes. Six ten-fold dilutions of each suspension were prepared with sterile, normal saline, 0.9%. Twenty-microliter samples of each dilution, including the initial suspension, was plated, in triplicate, onto blood agar plates and incubated at 37° C. for 24 hours. CFUs were counted at the greatest dilution for each tibia sample.

Mycobacterium abscessus = assay type: in vivo, human; conditions: human, in vivo
Protocol: Debridement was accomplished after one year of infection with placement of hardware. […] The amikacin was later stopped due to renal damage. Linezolid and azithromycin were later added to the treatment regimen. The organism was determined to be resistant to moxifloxacin.
The patient presented later with a new vertebral osteomyelitis just above the site of the old infection. A biopsy was performed and it was determined that no additional debridement was needed. […] Tigecycline was administered up to MIC 0.25 micrograms/ml. The patient's white blood cell count was normal while hypogammaglobulinemia was present and lymphocytic function decreased. The patient had also been under treatment with IL-12, but IL-12 was held during antibiotic treatment.

M. abcessus = test: Susceptibility/MIC of patient isolate, compassionate use study; assay type: cell-based, Mycobacterium abscessus; conditions: M. abscessus patient isolate
A. baumanii = test: Susceptibility of patient isolate; assay type: cell-based, Acinetobacter baumannii; conditions: A. baumanii from patient bone
[5] = average grade, t=14 versus t=56 days
[6] = individual rabbits, left tibia, 8 weeks after infection

## C[C@H]1[C@H](NC(=O)/C(=N\OC(C)(C)C(=O)O)c2csc(N)n2)C(=O)N1S(=O)(=O)O [Aztreonam]
Acinetobacter baumannii
  adverse event leading to discontinuation: persistent eosinophilia

## C[C@@H](O)[C@H]1C(=O)N2C(C(=O)O)=C(S[C@@H]3CN[C@H](C(=O)N(C)C)C3)[C@H](C)[C@H]12 [Meropenem]
Acinetobacter baumannii
  adverse event leading to discontinuation: eosinophilia

## CN[C@H](CC(C)C)C(=O)N[C@H]1C(=O)N[C@@H](CC(N)=O)C(=O)N[C@H]2C(=O)N[C@H]3C(=O)N[C@H](C(=O)N[C@H](C(=O)O)c4cc(O)cc(O)c4-c4cc3ccc4O)[C@H](O)c3ccc(c(Cl)c3)Oc3cc2cc(c3O[C@@H]2O[C@H](CO)[C@@H](O)[C@H](O)[C@H]2O[C@H]2C[C@](C)(N)[C@H](O)[C@H](C)O2)Oc2ccc(cc2Cl)[C@H]1O [Vancomycin]
[1]; MRSA study strain
  MIC/MBC ratio: 0.5
[1]; MRSA
  MBC: 0.78 µg/mL (≈ 0.538 µM)
  MIC: 0.39 µg/mL (≈ 0.269 µM)
[2]
  antibiotic serum levels (peaks and troughs): above minimum inhibitory concentrations
[3]
  mean weight gain: 0.39 kg
[4]; [5]
  radiographic improvement (grade): 0.5+/−0.2
  radiographic improvement (percent): 25%
[4]; bone cultures
  percentage of bone samples positive for MRSA: 18.2%
[4]; bone cultures at sacrifice
  rabbits/samples positive for MRSA in bone: 2 out of 11
[4]; compared with 0.33 (5/15) in control group
  proportion of positive cultures in marrow: not statistically significantly different from the control group
[4]; [6]
  Counts (CFU/gm) Bone: 270.3 CFU/gm and 1315.8 CFU/gm and 0 CFU/gm (14×)
  Counts (CFU/gm) Marrow: 1250 CFU/gm and 0 CFU/gm (15×)
[4]; tibia bone
  average bacterial concentration of the group: 1.4×10^2 CFU/gram bone

## NCC[C@H](O)C(=O)N[C@@H]1C[C@H](N)[C@@H](O[C@H]2O[C@H](CN)[C@@H](O)[C@H](O)[C@H]2O)[C@H](O)[C@H]1O[C@H]1O[C@H](CO)[C@@H](O)[C@H](N)[C@H]1O [amikacin, reference compound]
Mycobacterium abscessus
  adverse event leading to discontinuation: renal damage

## CO[C@@]1(NC(=O)Cc2cccs2)C(=O)N2C(C(=O)O)=C(COC(N)=O)CS[C@@H]21 [cefoxitin, reference compound]
M. abcessus
  susceptibility of the organism: sensitive

## O=C(O)c1cn(C2CC2)c2cc(N3CCNCC3)c(F)cc2c1=O [ciprofloxacin]
A. baumanii
  susceptibility of the organism: resistant

## CO[C@H]1/C=C/O[C@@]2(C)Oc3c(C)c(O)c4c(O)c(c(/C=N/N5CCN(C)CC5)c(O)c4c3C2=O)NC(=O)/C(C)=C\C=C\[C@H](C)[C@H](O)[C@@H](C)[C@@H](O)[C@@H](C)[C@H](OC(C)=O)[C@@H]1C [rifampin]
[1]; MRSA study strain
  MIC/MBC ratio: 0.5
[1]; MRSA, MRSA study strain, inoculum 10^6 CFU/ml
  MIC: 0.78 µg/mL (≈ 0.948 µM)
[1]; MRSA study strain, inoculum 10^6 CFU/ml
  MBC: 1.56 µg/mL (≈ 1.9 µM)
[4]; end of study, MRSA infected rabbits
  bacterial outcome in bone and marrow, in words: bactericidal activity

## NC[C@H]1O[C@H](O[C@H]2[C@H](O)[C@@H](O[C@H]3O[C@H](CO)[C@@H](O)[C@H](N)[C@H]3O)[C@H](N)C[C@@H]2N)[C@H](N)C[C@@H]1O [tobramycin]
Acinetobacter baumannii
  adverse event leading to discontinuation: increased creatinine
A. baumanii
  susceptibility of the organism: susceptible

## gentamicin
A. baumanii
  susceptibility of the organism: susceptible
